Data reported in patent publication US20250339409A1, “USES OF PAN BET INHIBITORS” (VYNE THERAPEUTICS INC., priority 2021, published 2025).
In brackets after ≈: the same amount, converted by molar mass. Like-named read-outs stand apart in the source and are kept apart here.

Tests used:
[1] = Solubility of BETi1 in water (HPLC) and in solvents (visual observation); assay type: physicochemical
Method: The resulting sample, still containing solid BETi1, was filtered and analyzed by HPLC for assay of BETi1 in solution. Solubility of BETi in water was determined to be about 0.005 mg/gram or 0.5 mg/100 mL water (1 ml=1 g) using HPLC (Table 41A).
To characterize the solubility of BETi in other solvents, about 5 mg of BETi1 was weighed into a 2 ml glass vial. 20 μL aliquots of each of the solvent listed in Table 41B was added to dissolve the drug substance at 25° C. Vortex and sonication were applied to assist dissolution. Approximate solubility was determined by visual observation and reported in […]

[2] = Solubility of BETi1 in solutions of hydroxypropyl-β-cyclodextrin in saline (HPLC); assay type: physicochemical; conditions: for solubility: aqueous with cosolvent or surfactant or cyclodextrin, thermodynamic from solid, 25° C., HPLC, read-out: Approximate solubility
Method: Saline is prepared by dissolving 0.9% of NaCl in water. 10% w/w or 20% w/w of hydroxypropyl-β-cyclodextrin (2HP-β-CD) is added to saline, sonicated for 1 minute, and mixed using magnetic stirrer until complete dissolution of 2HP-β-CD and a clear solution is obtained. Sufficient BETi1 is added to each 2HP-β-CD solution such that not all BETi1 is completely dissolved. The mixture is stirred with a magnetic stirrer at ambient conditions overnight (for at least 16 hours). The saturated samples, still containing solid phase, are filtered through a 0.45 μm filter and the filtrate is analyzed by HPLC.

[3] = Homogeneity of BETi1 dispersions in NaCMC/saline by light microscopy; assay type: physicochemical; conditions: suspensions in NaCMC solutions
Method: BETi1 is dispersed in 0.5% Sodium Carboxymethyl Cellulose (NaCMC) solution in NaCl saline (0.9% NaCl in water) to receive 4 mg/gram dispersion. […] All dispersions are thermally sterilized.
BETi suspensions at 4 mg/g (0.4%), at 0.4 mg/g (0.04%) and at 0.04 mg/g (0.004%) (Table 38) were prepared in NaCMC solutions as set out in Experimental Method N. The homogeneity (including absence of aggregates of solid particles) of the dispersion was analyzed and confirmed by light microscopy as shown in FIG. 14A-C. […] In the sample at 0.04 mg/g mainly larger crystals were observed, since the smaller ones were probably dissolved.

[4] = system: melanin in basal layers of RHE; test: RHE vitiligo model: melanin content and localization by Fontana Masson staining; assay type: cell-based, human
From the text: Melanin deposition on 6 μm paraffin sections of each epidermis (n=3) are highlighted through staining with Fontana Masson reagents (VWR—VWRK641295, VWRK641311; Klinipath—641215). Slides are mounted with specific medium and examined with a Nikon Eclipse (Ni-E) photomicroscope coupled to a numerical camera (DS-Ri2)
For the melanin quantification, three images of each epidermis are taken and analysed using the NIS-Element AR software (Nikon). For the quantification of melanin, a region of interest (ROI) is first defined and measured in the epidermis. This region includes only the basal layers. Then, two measures are taken by the software in this ROI. The first one represents the labelled surface on the ROI, and thus the area occupied by the melanin in the ROI. The second one corresponds to the global intensity of the staining in the ROI, reflecting a lighter or darker melanin. The relative quantification of melanin in the ROI is then performed by multiplying these two measures. To normalize the results to a given surface, this value was then divided by the surface of the ROI.
Formulations containing four doses of BETi1 the BETi1 vehicle (placebo), were evaluated in RHE TNF-α/IFN-γ vitiligo model as described Experimental section Method F and representative images of […] epidermis sections are shown in FIG. 6A-G. The images according to this method are consistent with the images with H/E stained epidermis sections and shown in FIG. 4A-H.
Results of the quantification of melanin in basal layers of epidermis stimulated or not with the cytokine cocktail to induce melanocytorhagy and treated with the test items are shown in FIG. 6H. The results are expressed with normalization to the surface of region of interest (ROI) corresponding to the 2-3 basal layers of the RHEs. […] As for TRP-1 staining, the effects of the ruxolitinib cream at 1% on melanin content could not be assessed given that the sections have detached from the glass slides during the staining process (probably without being bound by any theory may be due to the bad structure of the epidermis).

For Cn1cc(-c2cccc(O)c2Oc2ccccc2)c2cc[nH]c2c1=O [BETi1], the solubility ([1]; isopropanol) was “slightly soluble”, the solubility ([1]; organic solvent or mixture, thermodynamic from solid, 1,4-Dioxane, 25° C., visual observation, read-out: Approximate solubility) was 104000 µg/mL (≈ 313 mM) and the solubility ([1]; organic solvent or mixture, thermodynamic from solid, Acetone, 25° C., visual observation, read-out: Approximate solubility) was 15000 µg/mL (≈ 45.1 mM). For the same molecule, the solubility ([1]; organic solvent or mixture, thermodynamic from solid, Acetonitrile, 25° C., visual observation, read-out: Approximate solubility) was < 5000 µg/mL, the solubility ([1]; organic solvent or mixture, thermodynamic from solid, Anisole, 25° C., visual observation, read-out: Approximate solubility) was < 5000 µg/mL and the solubility ([1]; organic solvent or mixture, thermodynamic from solid, Dichloromethane, 25° C., visual observation, read-out: Approximate solubility) was < 5000 µg/mL. For the same molecule, the solubility ([1]; organic solvent or mixture, thermodynamic from solid, Ethanol, 25° C., visual observation, read-out: Approximate solubility) was 12000 µg/mL (≈ 36.1 mM), the solubility ([1]; organic solvent or mixture, thermodynamic from solid, Ethyl acetate, 25° C., visual observation, read-out: Approximate solubility) was < 5000 µg/mL and the solubility ([1]; organic solvent or mixture, thermodynamic from solid, Heptane, 25° C., visual observation, read-out: Approximate solubility) was < 5000 µg/mL. The solubility ([1]; organic solvent or mixture, thermodynamic from solid, IPAc, 25° C., visual observation, read-out: Approximate solubility) was < 5000 µg/mL, the solubility ([1]; organic solvent or mixture, thermodynamic from solid, Isopropanol, 25° C., visual observation, read-out: Approximate solubility) was 6000 µg/mL (≈ 18.1 mM) and the solubility ([1]; organic solvent or mixture, thermodynamic from solid, Methanol, 25° C., visual observation, read-out: Approximate solubility) was 21000 µg/mL (≈ 63.2 mM). The solubility ([1]; organic solvent or mixture, thermodynamic from solid, Methyl ethyl ketone, 25° C., visual observation, read-out: Approximate solubility) was 12000 µg/mL (≈ 36.1 mM), the solubility ([1]; organic solvent or mixture, thermodynamic from solid, Tetrahydrofuran, 25° C., visual observation, read-out: Approximate solubility) was 104000 µg/mL (≈ 313 mM) and the solubility ([1]; organic solvent or mixture, thermodynamic from solid, t-Butyl methyl ether, 25° C., visual observation, read-out: Approximate solubility) was < 5000 µg/mL. The solubility ([1]; polyethylene glycol 400, methanol, ethanol, acetone and methyl ethyl ketone) was “sparingly soluble”, the solubility ([1]; polyethylene glycol 400, organic solvent or mixture, read-out: solubility in polyethylene glycol 400) was ~20000 µg/mL (≈ 60.2 mM) and the solubility ([1]; tetrahydrofurane and 1,4-dioxane) was “freely soluble”. The solubility at 5 h ([1]; thermodynamic from solid, Water, 25° C., HPLC, read-out: Approximate solubility) was 5 µg/mL (≈ 0.015 mM), the solubility ([1]; water, ethyl acetate, acetonitrile, IPAc, t-Butyl methyl ether, heptane, dichloromethane or anisole) was “insoluble” and the solubility at 5 h ([1]; water, as stated in the dog study, read-out: water solubility limit) was 50 µg/mL (≈ 0.15 mM). The “amount of BETi1 fully dissolved” value ([2]; 10% HP-b-CD in saline, room temperature) was “below 4.3 mg/mL”, the solubility ([2]; 10% w/w hydroxypropyl-β-cyclodextrin in saline, 2HP-β-CD - Saline (10%:90%)) was 4340 µg/mL (≈ 13.1 mM) and the solubility ([2]; 20% w/w hydroxypropyl-β-cyclodextrin in saline, 2HP-β-CD - Saline (20%:80%)) was 8990 µg/mL (≈ 27 mM). The “aggregates of API particles in dispersions” value [3] was “no visible aggregates of API particles”, the “melanin retained relative to unstimulated control” value ([4]; basal layers of RHE) was “approximately 75%” and the “residual melanin levels, % of stimulated/untreated control” value ([4]; basal layers of RHE) was “about 367%”. The “melanin content in the basal layers” value ([4]; stimulated RHE, vs vehicle) was “significantly increase the melanin content in the basal layers”.
